“Also recorded” adds a separate entry of the source. Read-outs that look alike come from different tables or passages of the source.
How the values were obtained:
CB2 cannabinoid receptor [1] = target: T1, CB2 cannabinoid receptor (Mus musculus, UniProt P47936); test: Competitive [3H]CP55,940 binding assay, mouse spleen membranes; settings: rCB1 versus mCB2 Ki values
CB2 cannabinoid receptor [2] = target: T1, CB2 cannabinoid receptor; settings: earlier work on adamantyl substituents at C3 of Δ8-THC; cited from earlier work

T1 sequence (P47936 whole entry): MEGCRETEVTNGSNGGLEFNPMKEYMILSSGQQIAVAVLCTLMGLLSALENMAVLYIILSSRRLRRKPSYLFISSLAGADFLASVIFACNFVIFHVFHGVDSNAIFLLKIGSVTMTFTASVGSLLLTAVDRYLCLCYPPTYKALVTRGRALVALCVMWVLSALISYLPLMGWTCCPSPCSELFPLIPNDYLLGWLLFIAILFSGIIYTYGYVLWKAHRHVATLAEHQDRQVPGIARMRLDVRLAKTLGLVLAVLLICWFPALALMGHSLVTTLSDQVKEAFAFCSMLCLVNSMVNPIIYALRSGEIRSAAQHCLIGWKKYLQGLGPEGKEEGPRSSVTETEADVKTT

SMILES	CB1/CB2 receptor subtype selectivity (in words) (CB2 cannabinoid receptor [1])	CB1/CB2 receptor subtype selectivity (in words) (CB2 cannabinoid receptor [2])
CC1=CC[C@@H]2[C@@H](C1)c1c(O)cc([C@H]3C[C@@H]4CC[C@]3(C)C4(C)C)cc1OC2(C)C [Compound 8a, (6aR-trans)-3-(endo-1′,7′,7′-Trimethylbicyclo[2.2.1]hept-2′-yl)-6a,7,10,10atetrahydro-6,6,9-trimethyl-6H-dibenzo[b,d]pyran-1-ol]	no subtype selectivity	–
CC1=CC[C@@H]2[C@@H](C1)c1c(ccc(C[C@H]3C[C@@H]4CC[C@]3(C)C4(C)C)c1O)OC2(C)C [Compound 8c, (6aR-trans)-3-(endo-1′,7′,7′-Trimethylbicyclo[2.2.1]hept-2′-ylmethyl)-6a,7,10,10a-tetrahydro-6,6,9-trimethyl-6H-dibenzo[b,d]pyran-1-ol]	nonselective; also recorded: complete loss of subtype selectivities	–
CC1=CC[C@@H]2[C@@H](C1)c1c(ccc(C[C@@H]3C[C@@H]4CC[C@]3(C)C4(C)C)c1O)OC2(C)C [Compound 8d, (6aR-trans)-3-(exo-1′,7′,7′-Trimethylbicyclo[2.2.1]hept-2′-ylmethyl)-6a,7,10,10a-tetrahydro-6,6,9-trimethyl-6H-dibenzo[b,d]pyran-1-ol]	nonselective; also recorded: complete loss of subtype selectivities	–
CC1=CC[C@@H]2[C@@H](C1)c1c(O)cc(C34CC5CC(CC(C5)C3)C4)cc1OC2(C)C [Compound 11, 3-(adamant-1′-yl)-Δ^8-THC]	–	substantial CB1 selectivity
CC1=CCC2C(C1)c1c(O)cc(C3C4CC5CC(C4)CC3C5)cc1OC2(C)C (centres unmarked) [adamant-2′-yl analog]	–	CB2 selective
